The values below come from the NIST ThermoML archive (doi:10.1021/je800300x).

Numbers after ± are expanded uncertainties.

Series [1] can be described thus: Molar enthalpy of transition or fusion. The note with it: Crystal; DSC.
The conditions of series [2]: Crystal; DTA.

For `c1ccc2c(c1)-c1ccccc1-2` [biphenylene], the “Molar enthalpy of transition or fusion” value in series [1] was found to be 5.4 ± 0.359 kcal/mol. Also, the Normal melting temperature in series [2] worked out at 112.2 ± 1.1 °C.
